Consider 15 compounds from patent publication US5597848A, “Benzenesulfonamide derivatives and use thereof” (Hokuriku Seiyaku Co., Ltd., priority 1992, dated 1997).

One experiment addresses T1, thromboxane A2 receptor (Cavia porcellus, UniProt A0A286Y4I8).
T1 construct: platelet-rich plasma; endogenous in cells; host or cells: guinea-pig platelets in platelet-rich plasma
T1 sequence (A0A286Y4I8 1-347): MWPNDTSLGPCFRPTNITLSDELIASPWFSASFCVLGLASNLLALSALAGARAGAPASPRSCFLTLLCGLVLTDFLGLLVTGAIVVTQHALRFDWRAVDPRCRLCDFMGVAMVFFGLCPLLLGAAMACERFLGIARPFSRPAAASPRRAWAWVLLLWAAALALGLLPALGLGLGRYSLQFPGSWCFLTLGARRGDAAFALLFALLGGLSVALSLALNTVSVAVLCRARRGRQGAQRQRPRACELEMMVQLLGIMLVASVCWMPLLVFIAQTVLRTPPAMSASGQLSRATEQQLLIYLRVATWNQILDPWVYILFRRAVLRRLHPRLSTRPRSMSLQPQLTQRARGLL
Description: Thromboxane A2 antagonistic effect: inhibition of U-46619-induced platelet aggregation in guinea-pig platelet-rich plasma. Format: cell-based, guinea-pigs. The conditions noted are these: guinea-pig PRP, U-46619 2 μg/ml, 2 min at 37° C.; read-out: IC50 (50% inhibition against platelet aggregation). Here is the method: Blood was collected from the abdominal aorta of guinea-pigs (about 400 g wt.) into 1/10 volume of 3.8% sodium citrate, and then platelet-rich plasma (PRP: 6×10^5 cells/μl) was obtained by centrifugation. A cuvette was filled with PRP 190 μl and set in an aggregometer (Hema Tracer I; Niko Bioscience). Incubation was carried out for 2 min. at 37° C. after the addition of 1 μl of dimethyl sulfoxide solution of test compounds. To the PRP, 10 μl of U-46619 (Cayman), a thromboxane A2 /prostaglandin H2 receptor agonist and potent platelet aggregation inducer, was added at the final concentration of 2 μg/ml, and platelet aggregation was measured by an aggregometer.

The test system of experiment [1] is broncho-constriction induced by U-46619. Description: Inhibitory effect on broncho-constriction induced by U-46619 (Konzett-Roessler method, oral). The class given is in vivo, Male hartley guinea-pigs. The note with it: 0.3 mg/kg orally, 2 hrs before U-46619 4 μg/kg. Here is the method: Airway resistance was evaluated according to the method of Konzett-Roessler[Naunyn-Schmiedberg's Arch. Exp. Path. Pharmak., Vol. 195, 71 (1940)]. Male hartley guinea-pigs (about 400 g wt.) were anesthetized with urethane (1.5 g/kg, i.p.) and ventilated by an artificial respirator (Model 683; Harvard). At that time, overflowed air volume above the pressure of about 12 cm H2 O was measured by using a sensor (Model 7020; Ugo basile) and the value was used as an index of broncho-constriction. 0.3 mg/kg (5 ml/kg) of test compounds suspended in 5% gum Arabic was administered orally to Guinea-pigs fasted beforehand for 24 hr. After 2 hrs, U-46619 (4 μg/kg; Cayman) was administered through the cervical vein, and then maximal response was measured. Inhibitory rates compared to the reference group were calculated based on the response rate normalized by the complete closure as 100%.

The next experiment addresses T2, leukotriene D4 (Cavia porcellus, UniProt Q2NNR5).
T2 construct: tracheas were isolated from male Hartley guinea-pigs; from tissue; host or cells: isolated trachea of male Hartley guinea-pigs
T2 sequence (Q2NNR5 1-340): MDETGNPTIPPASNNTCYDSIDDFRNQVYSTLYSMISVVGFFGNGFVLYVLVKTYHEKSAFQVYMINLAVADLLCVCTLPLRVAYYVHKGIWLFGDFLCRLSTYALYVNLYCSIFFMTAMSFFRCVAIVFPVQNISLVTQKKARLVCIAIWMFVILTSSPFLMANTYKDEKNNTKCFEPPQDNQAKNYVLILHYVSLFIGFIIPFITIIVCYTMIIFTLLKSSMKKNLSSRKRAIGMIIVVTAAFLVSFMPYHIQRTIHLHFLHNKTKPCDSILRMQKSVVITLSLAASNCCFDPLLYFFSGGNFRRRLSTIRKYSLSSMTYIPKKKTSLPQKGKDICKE
Description: Leukotriene D4 antagonistic effect in isolated trachea (Schild method). Also noted: species or system male Hartley guinea-pigs. The note with it: isolated trachea, 30 min treatment, indomethacin 3×10^-6 M, Krebs 37° C. On the procedure:
According to an ordinary method, tracheas were isolated from male Hartley guinea-pigs, and ring specimens of approximately […] length were prepared. These specimens were suspended isotonically in organ baths that contained Krebs solution at 37° C. under a resting tension of 0.5 g. After repeated contractions with acetylcholine (1×10^-6 M; Ovisot for injection, Daiichi Seiyaku), and the first concentration-response curves was obtained by cummulative applications of leukotriene D4 (ULTRA FINE) into the organ baths. After treatments with test compounds at adequate concentrations for 30 min, the second concentration-response curves were obtained in the same manner as first applications. pKB values were calculated using these two concentration-response curves according to the method of Schild [Pharmacological Review, Vol. 9, 242 (1957)]. Indomethacin (3×10^-6 M; Sigma) was added beforehand to the organ bath to eliminate possible affections by thromboxane A2 and prostaglandin produced by stimulus of leukotriene D4 [Japan J. Pharmacol., Vol. 60, 227 (1992)].

The test system of experiment [2] is broncho-constriction induced by leukotriene D4. Kind of experiment: Inhibitory effect on broncho-constriction induced by leukotriene D4 (Konzett-Roessler method, oral). The conditions noted are these: Cavia porcellus, po; 30 mg/kg orally, leukotriene D4 1 μg/kg after 2 hr; indomethacin and propranolol pretreatment; read-out: Inhibition rate. The class given is in vivo, male Hartley guinea-pig. On the procedure:
Airway resistance was evaluated according to the method of Konzett-Roessler[Naunyn-Schmiedberg's Arch. Exp. Path. Pharmak., Vol. 195, 71 (1940)]. After male Hartley guinea-pig fasted beforehand for 24 hr were anesthetized with urethane, overflowed air volume was measured under artificial ventilation as an index of broncho-constriction. 30 mg/kg (5 ml/kg) of test compounds suspended in 5% gum Arabic were administered orally to […]. Leukotriene D4 (1 μg/kg; ULTRA FINE) was administered through the cervical vein after 2 hr, and then values were measured at 2 min after the time when responses became maximum. Inhibitory rates compared to the control group were calculated based on the response rate normalized by the overflowed volume at complete closure as 100% broncho-constriction state. Indomethacin (2 mg/kg, i.v.) and propranolol (1 mg/kg, i.v.) were administered at 10 min and 5 min before the administration of leukotriene D4, respectively.

`CCCCC(NS(=O)(=O)c1ccc(Cl)cc1)c1ccc(CCCC(=O)O)cc1` (stereo not shown) [Example 66, 4-[4-[1-(4-Chlorophenylsulfonylamino)pentyl]phenyl]butyric Acid]: the IC50 at thromboxane A2 receptor was determined as 320 nM. In addition, the Inhibition rate in experiment [1] is recorded as 85%. On leukotriene D4, this compound had a Kb of 794 nM. Further, the inhibition in vivo at 30 mg/kg in experiment [2] was found to be 81%.

For the compound `CCCCCC(NS(=O)(=O)c1ccc(Cl)cc1)c1ccc(CCCC(=O)O)cc1` (stereo not shown) [Example 67, 4-[4-[1-(4-Chlorophenylsulfonylamino)hexyl]phenyl]butyric Acid], the IC50 at thromboxane A2 receptor came out at 400 nM. The compound further returned an Inhibition rate in experiment [1] of 86%. For the same compound, the inhibition in vivo at 30 mg/kg in experiment [2] is 80%.

Consider `CC(C)CCC(NS(=O)(=O)c1ccc(Cl)cc1)c1ccc(CCCC(=O)O)cc1` (stereo not shown) [Example 71, 4-[4-[1-(4-Chlorophenylsulfonylamino)-4-methylpentyl]phenyl]butyric Acid], for which the IC50 at thromboxane A2 receptor came out at 400 nM. In addition, on leukotriene D4, the Kb was 200 nM. Moreover, the inhibition in vivo at 30 mg/kg in experiment [2] worked out at 68%.

On to `O=C(O)CCCc1ccc(C(CC2CCCCC2)NS(=O)(=O)c2ccc(Cl)cc2)cc1` (stereo not shown) [Example 79, 4-[4-[1-(4-Chlorophenylsulfonylamino)-2-cyclohexylethyl]phenyl]butyric Acid], for which the IC50 at thromboxane A2 receptor was determined as 320 nM. In experiment [1], this compound had an Inhibition rate of 55%. Further, the Kb on leukotriene D4 is 100 nM.

With `O=C(O)CCCc1ccc(C(CCC2CCCCC2)NS(=O)(=O)c2ccc(Cl)cc2)cc1` (stereo not shown) [Example 80, 4-[4-[1-(4-Chlorophenylsulfonylamino)-3-cyclohexylpropyl]phenyl]butyric Acid], the IC50 on thromboxane A2 receptor was determined as 1000 nM. The same compound had a Kb on leukotriene D4 of 126 nM. Also, the inhibition in vivo at 30 mg/kg in experiment [2] was found to be 60%.

For `O=C(O)CCCc1ccc(C(Cc2ccc(Cl)cc2)NS(=O)(=O)c2ccc(Cl)cc2)cc1` (stereo not shown) [Example 96, 4-[4-[2-(4-Chlorophenyl)-1-(4-chlorophenylsulfonylamino)ethyl]phenyl]butyric Acid], on thromboxane A2 receptor, the IC50 came to 630 nM. This compound came in with an Inhibition rate in experiment [1] of 89%. On leukotriene D4, this compound had a Kb of 1000 nM. Further, the inhibition in vivo at 30 mg/kg in experiment [2] came to 43%.

Consider `Cc1ccc(CC(NS(=O)(=O)c2ccc(Cl)cc2)c2ccc(CCCC(=O)O)cc2)cc1` (stereo not shown) [Example 97, 4-[4-[1-(4-Chlorophenylsulfonylamino)-2-(p-tolyl)ethyl]phenyl]butyric Acid], for which, on thromboxane A2 receptor, the IC50 is 320 nM. For the same compound, the Inhibition rate in experiment [1] was determined as 88%. The compound further yielded a pKB on leukotriene D4 of 5.9. Further, the inhibition in vivo at 30 mg/kg in experiment [2] was 56%.

For `O=C(O)CCCc1ccc(C(CCc2ccccc2)NS(=O)(=O)c2ccc(Cl)cc2)cc1` (stereo not shown) [Example 98, 4-[4-[1-(4-Chlorophenylsulfonylamino)-3-phenylpropyl]phenyl]butyric Acid], on thromboxane A2 receptor, the IC50 is 320 nM. This compound also gave an Inhibition rate in experiment [1] of 84%. The compound also had a Kb at leukotriene D4 of 398 nM. For the same compound, the inhibition in vivo at 30 mg/kg in experiment [2] amounted to 57%.

Regarding `CCCCCCC(NS(=O)(=O)c1ccc(Cl)cc1)c1ccc(CCCC(=O)O)cc1` (stereo not shown) [Example 99, 4-[4-[1-(4-Chlorophenylsulfonylamino)heptyl]phenyl]butyric Acid], the IC50 at thromboxane A2 receptor came to 320 nM. Moreover, the Kb at leukotriene D4 was 126 nM. In addition, the inhibition in vivo at 30 mg/kg in experiment [2] was 64%.

On to `CCCCC(NS(=O)(=O)c1ccc(Cl)cc1)c1ccc(CCCCC(=O)O)cc1` (stereo not shown) [Example 102, 5-[4-[1-(4-Chlorophenylsulfonylamino)pentyl]phenyl]valeric Acid], for which, at leukotriene D4, the Kb is 200 nM. Also, the inhibition in vivo at 30 mg/kg in experiment [2] was 50%.

With `CCCCCC(NS(=O)(=O)c1ccc(Br)cc1)c1ccc(CCCC(=O)O)cc1` (stereo not shown) [Example 104, 4-[4-[1-(4-Bromophenylsulfonylamino)hexyl]phenyl]butyric Acid], the inhibition in vivo at 30 mg/kg in experiment [2] was 83%.

Turning to `CCCCCC(NS(=O)(=O)c1ccc(F)cc1)c1ccc(CCCC(=O)O)cc1` (stereo not shown) [Example 105, 4-[4-[1-(4-Fluorophenylsulfonylamino)hexyl]phenyl]butyric Acid], the inhibition in vivo at 30 mg/kg in experiment [2] was determined as 82%.

`CCCCCC(NS(=O)(=O)c1ccc(Cl)cc1)c1ccc(CCCCC(=O)O)cc1` (stereo not shown) [Example 106, 5-[4-[1-(4-Chlorophenylsulfonylamino)hexyl]phenyl]valeric Acid] gave a Kb on leukotriene D4 of 126 nM. For the same compound, in experiment [2], the inhibition in vivo at 30 mg/kg worked out at 58%.

Take `CC(C)CCCC(NS(=O)(=O)c1ccc(Cl)cc1)c1ccc(CCCC(=O)O)cc1` (stereo not shown) [Example 107, 4-[4-[1-(4-Chlorophenylsulfonylamino)-5-methylhexyl]phenyl]butyric Acid]: at thromboxane A2 receptor, the IC50 turned out to be 250 nM. In addition, the Kb at leukotriene D4 was 100 nM. Moreover, in experiment [2], the inhibition in vivo at 30 mg/kg was 83%.

`CC(C)CCCCC(NS(=O)(=O)c1ccc(Cl)cc1)c1ccc(CCCC(=O)O)cc1` (stereo not shown) [Example 108, 4-[4-[1-(4-Chlorophenylsulfonylamino)-6-methylheptyl]phenyl]-butyric Acid]: at thromboxane A2 receptor, the IC50 amounted to 500 nM. For the same compound, the antagonist dissociation constant (Kb) at leukotriene D4 was 158 nM. Moreover, the inhibition in vivo at 30 mg/kg in experiment [2] stood at 82%.
